# Laboratory results as given in patent US8211945B2, “Carba-sugar amine derivative and glycolipid metabolic disorder treating agent containing the same as active ingredient” (Seikagaku Corporation, priority 2001, dated 2012).
# Positions count from the first letter of the chain named.
# Tests used:
# Assay in all cases: Mutant β-galactosidase activity in model cells, 4 days culture
# Assay type in all cases: cell-based
# [1] = target: T1, human mutant β-galactosidase G123R (Homo sapiens, UniProt P16278, G123R)
# T1 construct: expressed in transfected cells; host or cells: SV40-immortalized skin fibroblasts of a β-galactosidase-deficient knockout mouse
# T1 sequence (P16278 29-677 G123R): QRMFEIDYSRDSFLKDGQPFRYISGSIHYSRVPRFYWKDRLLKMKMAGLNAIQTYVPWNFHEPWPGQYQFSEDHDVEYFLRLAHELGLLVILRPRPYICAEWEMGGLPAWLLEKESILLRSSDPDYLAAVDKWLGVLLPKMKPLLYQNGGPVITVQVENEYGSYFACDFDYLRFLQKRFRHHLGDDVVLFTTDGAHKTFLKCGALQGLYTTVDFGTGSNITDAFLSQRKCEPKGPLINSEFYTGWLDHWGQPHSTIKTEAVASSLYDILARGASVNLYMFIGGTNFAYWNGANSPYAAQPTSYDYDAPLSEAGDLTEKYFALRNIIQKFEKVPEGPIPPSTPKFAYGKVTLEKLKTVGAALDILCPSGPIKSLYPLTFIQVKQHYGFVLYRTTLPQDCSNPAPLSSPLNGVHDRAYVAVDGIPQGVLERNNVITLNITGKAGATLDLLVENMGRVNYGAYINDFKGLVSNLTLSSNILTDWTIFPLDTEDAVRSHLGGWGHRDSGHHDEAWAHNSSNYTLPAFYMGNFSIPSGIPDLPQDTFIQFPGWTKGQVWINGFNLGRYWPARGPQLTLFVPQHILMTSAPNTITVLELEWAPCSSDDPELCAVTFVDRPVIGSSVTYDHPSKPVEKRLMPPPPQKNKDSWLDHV
# [2] = target: T2, human mutant β-galactosidase P263S (Homo sapiens, UniProt P16278, P263S)
# T2 construct: expressed in transfected cells; host or cells: SV40-immortalized skin fibroblasts of a β-galactosidase-deficient knockout mouse
# T2 sequence (P16278 29-677 P263S): T1 sequence (P16278 29-677 G123R) with R95G, P235S
# [3] = target: T3, human mutant β-galactosidase R482C (Homo sapiens, UniProt P16278, R482C)
# T3 construct: expressed in transfected cells; host or cells: SV40-immortalized skin fibroblasts of a β-galactosidase-deficient knockout mouse
# T3 sequence (P16278 29-677 R482C): T1 sequence (P16278 29-677 G123R) with R95G, R454C
"enzyme activity, Control ([1]; transferred gene G123R, control substance 0.5 mM NB-DGJ)","enzyme activity, Control ([2]; transferred gene P263S, control substance 0.5 mM NB-DGJ)","enzyme activity, Control ([3]; transferred gene R482C, control substance 0.5 mM NB-DGJ)",Structure (SMILES),"Relative ratio (×100%) ([1]; G123R, substance 18 vs control)","enzyme activity ([1]; transferred gene G123R, 0.2 μM, 4 days)","Relative ratio (×100%) ([2]; P263S, substance 18 vs control)","enzyme activity ([2]; transferred gene P263S, 0.2 μM, 4 days)","Relative ratio (×100%) ([3]; R482C, substance 18 vs control)","enzyme activity ([3]; transferred gene R482C, 0.2 μM, 4 days)"
0.13,0.02,0.14,"CCCCN1C[C@H](O)[C@@H](O)[C@@H](O)[C@H]1CO [Control, N-(n-butyl)-deoxygalactonojirimycin, reference compound]",–,–,–,–,–,–
–,–,–,"CCCCCCCCN[C@@H]1C=C(CO)[C@H](O)C(O)[C@@H]1O (stereo partly drawn) [Substance 18, N-octyl-5a-carba-α-L-arabino-hexo-5(5a)-enopyranosylamine]",1.55 ×100%,0.20,6.58 ×100%,0.12,4.25 ×100%,0.62
